Target: T1, human TLR7 (Homo sapiens, UniProt Q9NYK1)
T1 construct: host or cells: HEK293 (HEK-Blue hTLR7)
T1 sequence (Q9NYK1 27-1049): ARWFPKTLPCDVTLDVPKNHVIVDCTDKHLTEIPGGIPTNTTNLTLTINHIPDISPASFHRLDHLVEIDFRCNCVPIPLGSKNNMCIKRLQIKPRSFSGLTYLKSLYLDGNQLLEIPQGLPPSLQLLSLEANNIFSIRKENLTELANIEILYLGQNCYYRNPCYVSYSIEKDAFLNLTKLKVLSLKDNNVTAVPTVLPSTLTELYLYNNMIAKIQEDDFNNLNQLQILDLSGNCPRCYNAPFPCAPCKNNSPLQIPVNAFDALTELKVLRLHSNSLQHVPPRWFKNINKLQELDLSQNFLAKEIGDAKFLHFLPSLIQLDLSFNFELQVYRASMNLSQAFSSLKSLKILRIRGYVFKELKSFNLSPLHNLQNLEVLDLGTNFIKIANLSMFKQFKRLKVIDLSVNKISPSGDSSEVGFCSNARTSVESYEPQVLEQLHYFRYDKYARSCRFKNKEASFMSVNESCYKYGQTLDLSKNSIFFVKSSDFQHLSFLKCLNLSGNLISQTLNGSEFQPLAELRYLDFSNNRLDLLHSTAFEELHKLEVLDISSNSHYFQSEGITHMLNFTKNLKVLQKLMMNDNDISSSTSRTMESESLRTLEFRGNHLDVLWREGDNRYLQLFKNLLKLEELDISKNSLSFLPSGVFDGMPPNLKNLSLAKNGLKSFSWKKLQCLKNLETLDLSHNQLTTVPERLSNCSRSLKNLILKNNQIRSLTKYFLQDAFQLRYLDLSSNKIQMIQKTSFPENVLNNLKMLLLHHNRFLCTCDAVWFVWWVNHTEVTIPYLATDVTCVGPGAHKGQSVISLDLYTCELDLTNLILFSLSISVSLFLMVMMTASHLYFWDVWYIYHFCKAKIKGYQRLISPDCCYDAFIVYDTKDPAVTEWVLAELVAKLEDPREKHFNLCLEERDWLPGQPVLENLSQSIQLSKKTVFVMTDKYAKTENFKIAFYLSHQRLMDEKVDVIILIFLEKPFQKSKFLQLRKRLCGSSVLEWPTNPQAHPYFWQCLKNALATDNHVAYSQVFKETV
Assay: HEK293-Blue-hTLR-7 cells assay (SEAP reporter, R848 stimulation)
Assay type: cell-based
Conditions: HEK293-Blue-hTLR7 cells, R848, 20 hrs; read-out: HEK/hTLR7 IC50
Protocol: The following tests were carried out in order to determine the activity of the compounds of formula (I) and (Ia) in HEK293-Blue-hTLR-7/8/9 cells assay.
A stable HEK293-Blue-hTLR-7 cell line was purchased from InvivoGen (Cat. #: hkb-htlr7, San Diego, California, USA). These cells were originally designed for studying the stimulation of human TLR7 by monitoring the activation of NF-κB. A SEAP (secreted embryonic alkaline phosphatase) reporter gene was placed under the control of the IFN-β minimal promoter fused to five NF-κB and AP-1-binding sites. The SEAP was induced by activating NF-κB and AP-1 via stimulating HEK-Blue hTLR7 cells with TLR7 ligands. Therefore the reporter expression w % as declined by TLR7 antagonist under the stimulation of a ligand, such as R848 (Resiquimod), for incubation of 20 hrs. The cell culture supernatant SEAP reporter activity was determined using QUANTI-Blue™ kit (Cat. #: rep-qb1, Invivogen, San Diego, Ca, USA) at a wavelength of 640 nm, a detection medium that turns purple or blue in the presence of alkaline phosphatase.
HEK293-Blue-hTLR7 cells were incubated at a density of 250,000˜450,000 cells/mL in a volume of 170 μL in a 96-well plate in Dulbecco's Modified Eagle's medium (DMEM) containing 4.5 g/L glucose, 50 U/mL penicillin, […], […] Normocin, 2 mM L-glutamine, 10% (v/v) heat-inactivated fetal bovine serum with addition of 20 μL test compound in a serial dilution in the presence of final DMSO at 1% and 10 μL of 20 uM R848 in above DMEM, perform incubation under 37° C. in a C02 incubator for 20 hrs. Then 20 μL of the supernatant from each well was incubated with 180 μL Quanti-blue substrate solution at 37° C. for 2 hrs and the absorbance was read at 620˜655 nm using a spectrophotometer. The signaling pathway that TLR7 activation leads to downstream NF-κB activation has been widely accepted, and therefore similar reporter assay was modified for evaluating TLR7 antagonist.

| Structure (SMILES) | IC50 |
| --- | --- |
| Cn1ncc2c(N3Cc4ccc(N5CCC6(CCNCC6)CC5)cc4C(C)(C)C3)ccnc21 [Example 6, 3-[4,4-dimethyl-2-(1-methylpyrazolo[3,4-b]pyridin-4-yl)-1,3-dihydroisoquinolin-6-yl]-3,9-diazaspiro[5.5]undecane] | 26 nM |
| C[C@H]1CN(c2ccnc3c2cnn3C)Cc2ccc(N3C[C@H]4CNCCN4C3=O)cc21 [Example 24, (8aR)-2-[(4R)-4-methyl-2-(1-methylpyrazolo[3,4-b]pyridin-4-yl)-3,4-dihydro-1H-isoquinolin-6-yl]-1,5,6,7,8,8a-hexahydroimidazo[1,5-a]pyrazin-3-one] | 10 nM |
| C[C@H]1CN(c2ccnc3c2cnn3C)Cc2ccc(N3C[C@]4(CCNC4)CC3=O)cc21 (single isomer, unassigned) [Example 54] | 53 nM |
| C[C@H]1CN(c2ccnc3c2cnn3C)Cc2ccc(OC[C@@H]3CNCCN3C)cc21 [Example 44, (4R)-4-methyl-2-(1-methylpyrazolo[3,4-b]pyridin-4-yl)-6-[[(2S)-1-methylpiperazin-2-yl]methoxy]-3,4-dihydro-1H-isoquinoline] | 15 nM |
| C[C@H]1CN(c2ccnc3c2cnn3C)Cc2ccc(N3C[C@H]4CCNC[C@H]4C3=O)cc21 (single isomer, unassigned) [Example 56] | 9 nM |
| C[C@H]1CN(c2ccnc3c2cnn3C)Cc2ccc(N3C[C@@H]4CNCCN4C3=O)cc21 [Example 25, (8aS)-2-[(4R)-4-methyl-2-(1-methylpyrazolo[3,4-b]pyridin-4-yl)-3,4-dihydro-1H-isoquinolin-6-yl]-1,5,6,7,8,8a-hexahydroimidazo[1,5-a]pyrazin-3-one] | 15 nM |
| Cc1cc(N2Cc3cnc(N4CCNC5(CC5)C4)cc3[C@@H](C)C2)c2cnn(C)c2n1 [Example 75, (4R)-6-(4,7-diazaspiro[2.5]octan-7-yl)-2-(1,6-dimethylpyrazolo[3,4-b]pyridin-4-yl)-4-methyl-3,4-dihydro-1H-2,7-naphthyridine] | 10 nM |
| C[C@H]1CN(c2ccnc3c2cnn3C)Cc2ccc(N3C[C@@H]4CCNC[C@@H]4C3=O)cc21 (single isomer, unassigned) [Example 57] | 8 nM |
| COC[C@H]1CN(c2cc3c(cn2)CN(c2cc(C)nc4c2cnn4C)C[C@@H]3C)CCN1 [Example 81, (4R)-2-(1,6-dimethylpyrazolo[3,4-b]pyridin-4-yl)-4-methyl-6-[(3R)-3-(methoxymethyl)piperazin-1-yl]-3,4-dihydro-1H-2,7-naphthyridine] | 41 nM |
| Cc1cc(N2Cc3ccc(OC[C@H]4CNCCN4)cc3[C@@H](C)C2)c2cnn(C)c2n1 [Example 30, (4R)-2-(1,6-dimethylpyrazolo[3,4-b]pyridin-4-yl)-4-methyl-6-[[(2R)-piperazin-2-yl]methoxy]-3,4-dihydro-1H-isoquinoline] | 37 nM |
| C[C@H]1CN(c2ccnc3c2cnn3C)Cc2ccc(N3CCN(C(=O)C4CNCCO4)CC3)cc21 (stereo partly drawn) [Example 12, morpholin-2-yl-[4-[(4R)-4-methyl-2-(1-methylpyrazolo[3,4-b]pyridin-4-yl)-3,4-dihydro-1H-isoquinolin-6-yl]piperazin-1-yl]methanone] | 9 nM |

The remaining molecules from weak to strong by IC50, led by results:

| IC50 | Structure (SMILES) |
| --- | --- |
| 8 nM | C[C@H]1CN(c2ccnc3c2cnn3C)Cc2ccc(N3CC4CNC[C@H]4C3=O)cc21 (relative stereo) [Example 17, cis-5-[(4R)-4-methyl-2-(1-methylpyrazolo[3,4-b]pyridin-4-yl)-3,4-dihydro-1H-isoquinolin-6-yl]-1,2,3,3a,6,6a-hexahydropyrrolo[3,4-c]pyrrol-4-one] |
| 6 nM | C[C@H]1CN(c2ccnc3c2cnn3C)Cc2ccc(N3CCN(S(=O)(=O)C4CCNC4)CC3)cc21 (stereo partly drawn) [Example 33, (4R)-4-methyl-2-(1-methylpyrazolo[3,4-b]pyridin-4-yl)-6-(4-pyrrolidin-3-ylsulfonylpiperazin-1-yl)-3,4-dihydro-1H-isoquinoline] |
| 6 nM | CO[C@H]1CN(c2ccc3c(n2)[C@@H](C)CN(c2cc(C)nc4c2cnn4C)C3)CC[C@@H]1N [Example 65, (3S,4S)-3-methoxy-1-[(8S)-6-(1,6-dimethylpyrazolo[3,4-b]pyridin-4-yl)-8-methyl-7,8-dihydro-5H-1,6-naphthyridin-2-yl]piperidin-4-amine] |
| 5 nM | C[C@H]1CN(c2ccnc3c2cnn3C)Cc2ccc(N3CCNC(CO)C3)cc21 (stereo partly drawn) [Example 49, [4-[(4R)-4-methyl-2-(1-methylpyrazolo[3,4-b]pyridin-4-yl)-3,4-dihydro-1H-isoquinolin-6-yl]piperazin-2-yl]methanol] |
| 4 nM | CC1CN(c2ccnc3c2cnn3C)Cc2ccc(N3CCC4(CCNCC4)CC3)cc21 (stereo not drawn) [Example 4, 3-[4-methyl-2-(1-methylpyrazolo[3,4-b]pyridin-4-yl)-3,4-dihydro-1H-isoquinolin-6-yl]-3,9-diazaspiro[5.5]undecane] |
| 3 nM | Cc1cc(N2Cc3ccc(N4CCC5(CCNCC5)CC4)cc3C(C)C2)c2cnn(C)c2n1 (stereo not drawn) [Example 5, 3-[2-(1,6-dimethylpyrazolo[3,4-b]pyridin-4-yl)-4-methyl-3,4-dihydro-1H-isoquinolin-6-yl]-3,9-diazaspiro[5.5]undecane] |
| 3 nM | Cc1cc(N2Cc3ccc(N4CCC(N(C)C)CC4)nc3[C@@H](C)C2)c2cnn(C)c2n1 [Example 60, N,N-dimethyl-1-[(8S)-6-(1,6-dimethylpyrazolo[3,4-b]pyridin-4-yl)-8-methyl-7,8-dihydro-5H-1,6-naphthyridin-2-yl]piperidin-4-amine] |
| 3 nM | Cc1cc(N2Cc3ccc(N4CCC(O)(CN(C)C)CC4)nc3[C@@H](C)C2)c2cnn(C)c2n1 [Example 61, 4-[(dimethylamino)methyl]-1-[(8S)-6-(1,6-dimethylpyrazolo[3,4-b]pyridin-4-yl)-8-methyl-7,8-dihydro-5H-1,6-naphthyridin-2-yl]piperidin-4-ol] |
| 2 nM | CO[C@@H]1CN(C2CCN(c3ccc4c(c3)[C@@H](C)CN(c3ccnc5c3cnn5C)C4)CC2)C[C@H]1N [Example 11, (3R,4R)-4-methoxy-1-[1-[(4R)-4-methyl-2-(1-methylpyrazolo[3,4-b]pyridin-4-yl)-3,4-dihydro-1H-isoquinolin-6-yl]-4-piperidyl]pyrrolidin-3-amine] |
| 1 nM | C[C@H]1CN(c2ccnc3c2cnn3C)Cc2ccc(N3CCC(N4CCNCC4)CC3)cc21 [Example 10, (4R)-4-methyl-2-(1-methylpyrazolo[3,4-b]pyridin-4-yl)-6-(4-piperazin-1-yl-1-piperidyl)-3,4-dihydro-1H-isoquinoline] |
